According to patent US7371779B2, “Synergistic compositions of N-acylhomoserine lactones and 4-quinolones” (The Secretary of State for Defense Science and Technology, priority 2001, dated 2008):
Like-named read-outs stand apart in the source and are kept apart here.

Legend:
human PBMC = test: ConA mitogen-stimulated proliferation of human PBMC ([3H]-thymidine incorporation); assay type: cell-based; details: for IC50: Experiment II, read-out: IC50 in inhibition of ConA induced cell proliferation of PBMC
Description: Blood specimens were obtained with consent from healthy human volunteers. Human peripheral blood mononuclear cells (PBMC) were isolated from heparinised whole blood by buoyant density centrifugation over Histopaque 1077 (Sigma, Poole, UK) at 600 g for 20 minutes. PBMC harvested from the ‘buffy’ layers were washed twice with RPMI 1640 medium and resuspended in CTCM. […] Human PBMC were incubated for 48 h at 37° C. in 5% CO2-air, followed by pulsing with 0.25 μCi [^3H]-thymidine (see above). After a further incubation of 24 h cells were harvested onto fibreglass filters and then counted in the presence of MicroScint-O with the Packard TopCount.
Concanavalin induced cell proliferation of human peripheral blood mononuclear cells (PBMC) was tracked, as described in I above, by a measurement of counts per minute using the scintillation counter. The inhibitory effect of an HSL compound being tested on cell proliferation was indicated by a reduction in counts per minute. […] Columns B, C and D represent different sources of human PBMC samples used.
Plots of counts per minute (cpm) against the concentration of the quorum sensing molecules and the vehicle are shown in FIG. 11.

murine splenocytes = test: ConA mitogen-stimulated proliferation of murine splenocytes ([3H]-thymidine incorporation); assay type: cell-based, mouse (BALB/c); details: ConA 1 μg/ml, 100,000 spleen cells, Experiment I; read-out: IC50 in inhibition of ConA induced murine splenocyte proliferation
Description: (§1) Proliferation was assessed by the incorporation of [^3H]-thymidine into DNA. Eight-week-old female BALB/c mice were obtained from Harlan (Bicester, Oxon, UK) and given food and water ad libitum. Splenocyte suspensions were prepared by removing the spleens and placing them into RPMI 1640 medium. The spleens were forced through 70-μm-pore-size wire gauzes using the plunger from a 5-ml syringe to produce a single cell suspension. The cells were pelleted by centrifugation, and erythrocytes were lysed with 0.017 M Tris, 0.144 M ammonium chloride buffer, pH 7.2. Leucocytes were washed twice with RPMI 1640 medium with 2% (vol/vol) foetal calf serum (FCS) and resuspended in complete cell culture medium (CTCM) consisting of RPMI 1640 medium with 5% FCS, 2 mM L-glutamine, and 5×10^−5 M 2-mercaptoethanol. HSL compounds were tested at doubling down dilutions ranging from 1 mM to 0.1 μM in a final volume of 200 μl of CTCM, containing ConA (Sigma, Poole, UK) at 1 μg/ml and 100,000 spleen cells. Following incubation for 48 h at 37° C. in 5% CO2-air, 0.25 μCi [^3H]-thymidine (Amersham) in 10 μl volume made up in RPMI 1640 medium was added and the cells were incubated for a further 24 h. Cells were harvested onto fibreglass filters with a Packard filtermate harvester. After the addition of 25 μl of MicroScint-O (Packard) to each well the filters were counted with the Packard TopCount scintillation counter.
(§2) Mitogen (Concanavalin A) induced murine splenocyte proliferation was indicated by the incorporation of tritated thymidine into the DNA in the mouse spleen cells as shown by counts per minute using the scintillation counter. The inhibitory effect of an HSL compound being tested on cell proliferation was indicated by a reduction in counts per minute.
as §1, with “70 μm pore size” for “70-μm-pore-size”, “5 ml” for “5-ml”, “The title compound was” for “HSL compounds were”, “dilutions” for “dilutions ranging from 1 mM to 0.1 μM in a final volume of 200 μl of CTCM,”, “g/ml” for “μg/ml”, “COrair,” for “CO2-air,”
as §2, with “the title” for “an HSL”

TNF-alpha = TNF-alpha production from LPS-stimulated human PBMC (sandwich ELISA); assay type: cell-based; details: for IC50: Experiment III, read-out: IC50 in inhibition of LPS induced production of TNF-α by human PBMC; for inhibition of LPS induced TNF-α production by human PBMC, in words: LPS-stimulated human PBMC
Description: Bacterial lipopolysaccharide (LPS) stimulates the production of a variety of cytokines, including TNF-alpha, from human PBMC; these cytokines in turn influence the development of T cells, supporting a T helper 1 conducive milieu. Human PBMC prepared from whole blood by buoyant density centrifugation were resuspended in CTCM. […] Following incubation for 24 h at 37° C. in 5% CO2-air, the cell culture supernatants were collected and tested for TNF-alpha levels by ‘sandwich’ ELISA. Briefly, 96-well Nunc MaxiSorp (Life Technologies, Paisley, UK) plates were coated with 50 μl of a 2 μg/ml solution of mouse anti-human TNF-alpha monoclonal antibody (Pharmingen, UK) in 0.05 M carbonate/bicarbonate buffer, pH 9.6 overnight at 4° C. After washing the plates three times with PBS-Tween, which contained phosphate buffered saline (PBS) with 0.5% (vol/vol) Tween 20 (Sigma, Poole, UK), the plates were blocked with 1% (wt/vol) bovine serum albumin (BSA) (Sigma, Poole, UK) at room temperature for 2 h. Following three washes with PBS-Tween, 50 μl of cell culture supernatants were added and incubated overnight at 4° C.; standard human TNF-alpha (Pharmingen, UK) ranging from 2000 to 31.25 pg/ml were included for each plate. After four washes with PBS-Tween, 50 μl of a second antibody, biotinylated mouse anti-human TNF-alpha monoclonal antibody (Pharmingen, UK) was added at 0.5 μg/1 ml diluted in 1% BSA in PBS-Tween and incubated at room temperature for 1 h. Following four washes, the bound biotinylated antibody was detected with 50 μl of a 1:1,000 dilution of Streptavidin-peroxidase (Pharmingen, UK). At the end of an hour incubation at room temperature, the plates were thoroughly washed six times with PBS-Tween and the assay was developed by the addition of 100 μl of 0.1 mg/ml of tetramethyl benzidine subtrate (Sigma, Poole, UK) in 0.1 M sodium acetate buffer, pH 6 containing 0.03% H2O2. The enzyme reaction was stopped with 50 μl of 2.5 M H2SO4 after an incubation of 10 minutes at room temperature and the development was read at 450 nm with a spectrophotometric 96-well plate reader (Dynex).

Compound	IC50 (human PBMC; human PBMC source B) [µM]	IC50 (human PBMC; human PBMC source D) [µM]	IC50 (murine splenocytes) [µM]	IC50 (TNF-alpha) [µM]	inhibition of ConA induced proliferation of human PBMC (cpm), in words (human PBMC; ConA 1 μg/ml)	IC50 (human PBMC; human PBMC source C) [µM]	inhibition of LPS induced TNF-α production by human PBMC, in words (TNF-alpha)
O=C(CCCCCCCCCBr)CC(=O)N[C@H]1CCOC1=O [Example 7, N-(12-Bromo-3-oxododecanoyl)-L-homoserine lactone]	20	7	6	63	–	–	–
O=C(CCCCCCCCCCBr)CC(=O)N[C@H]1CCOC1=O [Example 9, N-(13-Bromo-3-oxotridecanoyl)-L-homoserine lactone]	8	12	3	–	–	–	–
CCCCCCCCCCCC(=O)CC(=O)N[C@H]1CCOC1=O [Example 11, N-(3-Oxotetradecanoyl)-L-homoserine lactone]	32	30	6	35	inhibited proliferation of human PBMC	12	inhibited the secretion
COC(=O)CCCCCCCCCCC(=O)CC(=O)N[C@H]1CCOC1=O [Example 13, N-(13-Methoxycarbonyl-3-oxotridecanoyl)-L-homoserine lactone]	15	20	6	–	–	–	–
O=C(CCCCCCCCCO)CC(=O)N[C@H]1CCOC1=O [Example 19, N-(12-Hydroxy-3-oxododecanoyl)-L-homoserine lactone]	–	–	9	70	–	–	–
CCCC(=O)CC(=O)N[C@H]1CCOC1=O [OHHL, reference compound]	–	–	–	–	–	–	difference in activity between OHHL and OdDHL is marked
